Drawing on ChEMBL document CHEMBL1154641 (Bioorg Med Chem Lett, 2009), this text covers Ki for nine molecules.

Molecules are shown by their SMILES.

For orientation: Ki means the equilibrium dissociation constant of an inhibitor or competing ligand from its target.

The target of this assay is T1, Carbonic anhydrase 2 (Mycobacterium tuberculosis, UniProt P9WPJ9).
T1 sequence (P9WPJ9 whole entry): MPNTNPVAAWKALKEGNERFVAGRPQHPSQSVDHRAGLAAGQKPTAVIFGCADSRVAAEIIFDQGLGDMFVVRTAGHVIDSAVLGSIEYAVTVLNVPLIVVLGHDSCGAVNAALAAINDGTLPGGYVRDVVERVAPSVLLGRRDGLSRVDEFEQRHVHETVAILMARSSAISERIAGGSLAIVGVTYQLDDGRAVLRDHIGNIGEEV
Description: Inhibition of full length Mycobacterium tuberculosis H37Rv recombinant carbonic anhydrase 2 encoded by RV3588c by stopped flow CO2 hydration assay
Molecule `NCCc1ccc(S(N)(=O)=O)cc1` displayed a Ki of 29.1 µM.

Take `Nc1ccc(S(N)(=O)=O)cc1Br`: the affinity, expressed as Ki, was 31.6 µM.

Consider `NCc1ccc(S(N)(=O)=O)cc1` [MAFENIDE], for which the affinity corresponds to a Ki of 30.7 µM.

The molecule `NS(=O)(=O)c1ccc(CO)cc1` gave a Ki of 38.3 µM.

On to `Nc1ccc(S(N)(=O)=O)cc1I`, for which the Ki was found to be 32.4 µM.

On to `NS(=O)(=O)c1nnc(-c2ccccc2Cl)s1`, for which the Ki worked out at 45.2 µM.

In the case of `Nc1ccc(S(=O)(=O)NCCc2ccc(S(N)(=O)=O)cc2)cc1`, affinity was put at a Ki of 2.29 µM.

`Cc1ccc(S(N)(=O)=O)cc1` [P-TOLUENESULFONAMIDE] displayed a Ki of 38.9 µM.

`NS(=O)(=O)c1ccc(S(=O)(=O)Nc2cccc3c(Cl)c[nH]c23)cc1` returned a Ki of 0.717 µM.
